This note sets out measurements from patent publication US20240067672A1, “FLAVONE DERIVATIVE FOR TREATING TUMORS AND USE THEREOF” (SICHUAN FUSHENGYUAN TECHNOLOGY CO., LTD, priority 2019, published 2024).

In brackets after ≈: the same amount, converted by molar mass. Read-outs that look alike come from different tables or passages of the source.

The nature of series [1]: Determination of solubility (HPLC). Format: physicochemical. As for the experimental part: About 1.325 mg of Icaritin and the synthesized derivative were weighed and dissolved in 1.5 mL methanol respectively, then diluted with methanol into solutions of 10, 20, 50, 100, 150, 200, 500 μg/mL, and filtered over an organic-system filter head of 0.45 μm into sample bottles, obtaining the samples for test. Four parts of Icaritin and the synthesized derivative were weighed respectively, 1.00 mg for each part, and placed into 1.5 mL EP tubes, and 1 mL of water, normal saline, PBS, and 0.1% Tween 80 were respectively added thereto. The obtained solutions were ultrasonicated for 1 h, placed in a water bath at 37° C. overnight, and centrifuged at 10000 r/min for 3 min to collect supernatants. The supernatants were taken into sample bottles and detected by HPLC. The experiments were conducted in parallel for three times. The detection of HPLC is conducted under conditions of a chromatographic column of waters Symmetry C18, a mobile phase of a solution of methanol and water with a ratio of 80:20, a flow rate of 1.0 mL/min, a column temperature of 30° C., a detection wavelength of 210 nm, a run time of 30 min, and a sample load of 20 μL.

The test system of another series is SMMC7721 hepatoma cells. The series can be described thus: Anti-tumor activity in vitro, MTT method, SMMC7721. Format: cell-based, human. To be noted: for IC50: MTT. The protocol: (§1) The effects of Icaritin and its derivatives on the activities of HepG2 and SMMC7721 hepatoma cells were investigated by a MTT method. […] After reaction for 48, 7 2 h, each well was added with 20 μL 5 mg/mL, of MTT solution, and incubated in a cell incubator for 3-4 h. Then the liquid in the well plates was sucked to discard. Each well was added with 150 μL of dimethyl sulfoxide (DMSO), and shaken on an enzyme-labeled instrument for 30 s at ambient temperature so that the Formazan crystals were dissolved sufficiently. The absorbance value A of each well at 570 nm was detected by the enzyme-labeled instrument, and the experiment was repeated for 3 times.
In general terms: Tetrazolium dyes change colour on reduction, which living cells bring about.

The next series concerns HepG2 hepatoma cells. The series can be described thus: Anti-tumor activity in vitro, MTT method, HepG2. It counts as cell-based, human. To be noted: for IC50: MTT. As for the experimental part:
as §1

In the next series the test system is HepG2 subcutaneous tumor. The series can be described thus: Anti-tumor activity in vivo, HepG2 nude mouse model. To be noted: HepG2 nude mice, intraperitoneally every day for 21 days. More on the design: species or system Balb/c nude mice. An excerpt: According to the investigation results of solubility and cell activity, compounds 51 and 57 with high solubility and strong cell activity were selected to evaluate the anti-hepatoma activity in vivo on HepG2 nude mouse models.
Human hepatoma cells HepG2 were cultivated to logarithmic growth phase in DMEM culture medium containing 10% fetal calf serum and 1% antibiotics (penicillin and streptomycin), and digested by adding 0.25% pancreatin. After the resulting cells were cultivated in DMEM and the pancreatin was removed, they were centrifuged at 1000 rpm for 3 min. Then the cells were collected and washed with free medium until no bubbles produced as observed by naked eyes, and then ° entrifuged. After discarding the supernatant, the cells were resuspended with free medium adjust the cell density to 1×10^6/100 μL.
70 Balb/c nude mice raised in an SPF-grade animal house were taken. 100 μL, HepG2 cells were inoculated subcutaneously at the right lateral rib of each nude mouse. The growing status of nude mice was observed and the subcutaneous tumor volume was measured every day. One week after inoculation, obvious nodules were formed subcutaneously in nude mice. Administration was initiated when the tumor grew to 100 mm^3.
Tumor volume increased to 80-120 mm^3 at two weeks after inoculation, marked as Day 0. The nude mice were randomly divided into 6 groups with 6 mice in each group: a normal saline group (control), an Icaritin group (Icarian), a yyhs-i-b high dose group, a yyhs-1-b low dose group, a yyhs-2-a high dose group, and a yyhs-2-a low dose group. Administration was performed intraperitoneally every day for 21 days totally.
The administration doses were: Icarian at 10 mg/kg, compound 51 high dose at 25.30 mg/kg, low dose at 12.65 mg/kg, compound 57 high dose at 22.91 mg/kg, and low dose at 11.45 mg/kg.
From day 0, the body weights and tumor volumes of nude mice were measured once every three days, in which the maximum diameter (a) of tumor was measured first, and then the longest radial line length (b) perpendicular to the maximum diameter line was measured, in mm, thereby calculating the tumor volume according to the following formula: […]
At the end of the treatment cycle, blood was taken from orbital vein of the nude mice for later blood routine test. Then the nude mice were sacrificed using cervical vertebra dislocation. After taking photos, the tumors were stripped immediately and photographed for record. From day 0, the body weights of each group of nude mice were weighed and recorded every 3 days, and at the same time, the tumor volumes of these nude mice were recorded. The average body weight and tumor volume were calculated for each group, and the curve of body weight versus tumor volume of the nude mice was plotted according to the statistical data.
The hearts, livers, spleens, lungs, and kidneys were subsequently picked from the nude mice, soaked with 4% paraformaldehyde and then preserved at a low temperature of 4° C. for later investigation of the mechanism of the anti-tumor in vivo. The tumor volume growth curve was plotted with the time as the horizontal coordinate, and with the tumor volume as the vertical coordinate. The tumor volume growth curves and the appearance of tumors are seen in FIG. 1. The body weight changing curves of mice are plotted in FIG. 2, with the time as the horizontal coordinate, and the body weight of mice as the vertical coordinate.

Take `COc1ccc(-c2oc3c(CC=C(C)C)c(O)cc(O)c3c(=O)c2OC(=O)CCC(=O)OCCOCCOCCOCc2cn(C3OC(CO)C(O)C(O)C3O)nn2)cc1` (centres unmarked) [Compound 57]: in series [1], the “Solubility, 0.1% Tween 80” value was 6.508 ± 0.742 µg/mL (≈ 7.71 µM); the “Solubility, Normal Saline” value was 16.383 ± 0.941 µg/mL (≈ 19.4 µM); the “Solubility, PBS” value came to 16.391 ± 1.029 µg/mL (≈ 19.4 µM); the “Solubility, Water” value is 17.710 ± 1.012 µg/mL (≈ 21 µM). Also, in series [1], the “solubility compared with that of the bulk drug (Icaritin)” value is “improved effectively”. Moreover, in the series with SMMC7721 hepatoma cells (SMMC7721, 48 h, read-out: IC50 SMMC7721 48 h), the IC50 (in general, the point on the concentration scale where inhibition reaches its midpoint) stood at 10.3 ± 1.19 µM. Further, the IC50 with SMMC7721 hepatoma cells (SMMC7721, 72 h, read-out: IC50 SMMC7721 72 h) was 5.82 ± 1.04 µM. The “IC50 compared with Icaritin, SMMC7721 72 h” value in the series with SMMC7721 hepatoma cells (SMMC7721, 72 h after administration) is listed as “less than that of Icaritin”. In addition, the half-maximal inhibitory concentration (IC50) in the series on HepG2 hepatoma cells (HepG2, 48 h, read-out: IC50 HepG2 48 h) is 10.3 ± 1.19 µM. Moreover, in the series with HepG2 hepatoma cells (HepG2, 72 h, read-out: IC50 HepG2 72 h), the IC50 worked out at 7.91 ± 0.98 µM. The “IC50 compared with Icaritin, HepG2 72 h” value in the series on HepG2 hepatoma cells (HepG2, 72 h after administration) was “less than that of Icaritin”. Moreover, in the series with HepG2 hepatoma cells (HepG2 and SMMC7721, 48 and 72 h), the “IC50 compared with Icaritin, 48 and 72 h” value is given as “less than those of Icaritin”. Moreover, the “anti-tumor activity in vivo (tumor volume, FIG. 1)” value with HepG2 subcutaneous tumor (high and low dose) was “excellent anti-tumor activities in vivo and are dose-dependent”. The tumor inhibition rate in the series with HepG2 subcutaneous tumor (equal mole of Icaritin (Icaritin 10 mg/kg)) worked out at 90%.
